Test results reported in patent US20230077199A1, “PALMITOYL TETRAPEPTIDE-20 CONJUGATED NANOSILVER PARTICLE AND USE THEREOF” (priority 2021, published 2023).

Tested on: B16F10 cells
Test: Measurement of melanin production
Type: cell-based, murine
Conditions: B16F10, 200 nM, single treatment
Description: B16F10 are seeded in 24-well plates at the density of 8×10^4 cells/well and incubated for 24 hours at 37° C. with 5% CO2 atmosphere. After removing the used cell medium, the cells are treated with fresh cell culture medium (control group), 200 nM α-MSH (α-MSH group), combination of 200 nM α-MSH and various concentrations of palmitoyl tetrapeptide-20 conjugated nanosilver particle (α-MSH+sample group), and various concentrations of palmitoyl tetrapeptide-20 conjugated nanosilver particle (sample group), for 24 hours. After treatment, the treated solution in the well is removed with further incubation with fresh cell culture medium for 24 hours.
The cells are washed twice with PBS. The cells are transferred into a 1.5 mL microtube and centrifuged at 10,000 rpm for 5 minutes to obtain cell pellets. Add 100 μL of solution (1 N NaOH containing 10% DMSO) to the pellet for 60 minutes at 80° C. to dissolve intracellular melanin. Extract 80 μL of dissolved melanin and place in 96-well plates, and melanin contents of control group and treatment group are determined by measuring the absorbance at 405 nm. The assay is repeated for three independent experiments. The equation for calculating melanin content is described as following: Total melanin content (%)=(A405 nm treatment group/A405 nm control group)×100%.

Substance: α-melanocyte stimulating hormone [α-MSH]
- induction of melanin synthesis: effectively induce melanin synthesis
